# Measurements from patent publication US9061966B2, “Cyclopropylamine inhibitors of oxidases” (ORYZON GENOMICS S.A., priority 2010, dated 2015).
# Where a name gives a salt, the structure may show the parent alone.
# Assays:
# Format in all cases: biochemical
# [1] = biological target: T1, Human recombinant LSD1 protein (Homo sapiens, UniProt O60341); assay: Inhibition of LSD1 (Amplex Red peroxide/peroxidase-coupled demethylase assay, di-methylated H3-K4 peptide substrate); details: Ki (IC50) estimated at half of the maximum activity; range class
# T1 construct: purchased BPS Bioscience Inc
# Text: The compounds of the invention can be tested for their ability to inhibit LSD1. The ability of the compounds of the invention to inhibit LSD1 can be tested as follows. Human recombinant LSD1 protein was purchased from BPS Bioscience Inc. In order to monitor LSD1 enzymatic activity and/or its inhibition rate by our inhibitor(s) of interest, di-methylated H3-K4 peptide (Millipore) was chosen as a substrate. The demethylase activity was estimated, under aerobic conditions, by measuring the release of H2O2 produced during the catalytic process, using the Amplex® Red peroxide/peroxidase-coupled assay kit (Invitrogen).
# Briefly, a fixed amount of LSD1 was incubated on ice for 15 minutes, in the absence and/or in the presence of various concentrations of inhibitor (e.g., from 0 to 75 μM, depending on the inhibitor strength). Tranylcypromine (Biomol International) was used as a control for inhibition. Within the experiment, each concentration of inhibitor was tested in triplicate. After leaving the enzyme interacting with the inhibitor, 12.5 μM of di-methylated H3-K4 peptide was added to each reaction and the experiment was left for 1 hour at 37° C. in the dark. The enzymatic reactions were set up in a 50 mM sodium phosphate, pH 7.4 buffer. At the end of the incubation, Amplex® Red reagent and horseradish peroxidase (HPR) solution were added to the reaction according to the recommendations provided by the supplier (Invitrogen), and left to incubate for 30 extra minutes at room temperature in the dark. A 1 μM H2O2 solution was used as a control of the kit efficiency. The conversion of the Amplex® Red reagent to resorufin due to the presence of H2O2 in the assay, was monitored by fluorescence (excitation at 540 nm, emission at 590 nm) using a microplate reader (Infinite 200, Tecan). Arbitrary units were used to measure level of H2O2 produced in the absence and/or in the presence of inhibitor.
# The maximum demethylase activity of LSD1 was obtained in the absence of inhibitor and corrected for background fluorescence in the absence of LSD1. The Ki (IC50) of each inhibitor was estimated at half of the maximum activity.
# [2] = biological target: T2, Human recombinant monoamine oxidase MAO-B (Homo sapiens, UniProt P27338); assay: Monoamine oxidase assay, kynuramine fluorescence, MAO-B; details: Ki (IC50) determined at Vmax/2; range class
# T2 construct: purchased Sigma Aldrich
# T2 sequence (P27338 1-520): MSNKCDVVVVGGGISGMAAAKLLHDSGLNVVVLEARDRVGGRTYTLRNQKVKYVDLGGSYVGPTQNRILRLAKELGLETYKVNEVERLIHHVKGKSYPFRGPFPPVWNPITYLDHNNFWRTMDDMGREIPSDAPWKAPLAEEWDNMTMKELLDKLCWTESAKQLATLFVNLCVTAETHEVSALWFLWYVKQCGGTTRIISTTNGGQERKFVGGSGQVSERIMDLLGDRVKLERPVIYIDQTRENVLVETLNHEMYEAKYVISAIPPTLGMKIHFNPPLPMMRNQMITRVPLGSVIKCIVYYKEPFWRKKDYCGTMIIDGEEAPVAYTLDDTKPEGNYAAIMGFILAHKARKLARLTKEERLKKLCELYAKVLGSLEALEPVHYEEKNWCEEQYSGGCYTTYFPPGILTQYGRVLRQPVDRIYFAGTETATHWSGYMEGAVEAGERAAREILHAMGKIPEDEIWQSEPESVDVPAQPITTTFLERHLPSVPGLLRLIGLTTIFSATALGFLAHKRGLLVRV
# Text: (§1) Human recombinant monoamine oxidase proteins MAO-A and MAO-B were purchased from Sigma Aldrich. MAOs catalyze the oxidative deamination of primary, secondary and tertiary amines. In order to monitor MAO enzymatic activities and/or their inhibition rate by inhibitor(s) of interest, a fluorescence-based (inhibitor)-screening assay was set up. 3-(2-Aminophenyl)-3-oxopropanamine (kynuramine dihydrobromide, Sigma Aldrich), a non fluorescent compound was chosen as a substrate. Kynuramine is a non-specific substrate for both MAO-A and MAO-B activities. While undergoing oxidative deamination by MAO activities, kynuramine is converted into 4-hydroxyquinoline (4-HQ), a resulting fluorescent product.
# (§2) The monoamine oxidase activity was estimated by measuring the conversion of kynuramine into 4-hydroxyquinoline. Assays were conducted in 96-well black plates with clear bottom (Corning) in a final volume of 100 μL. The assay buffer was 100 mM HEPES, pH 7.5. Each experiment was performed in triplicate within the same experiment.
# (§3) Briefly, a fixed amount of MAO (0.25 μg for MAO-A and 0.5 μg for MAO-B) was incubated on ice for 15 minutes in the reaction buffer, in the absence and/or in the presence of various concentrations of inhibitor (e.g., from 0 to 50 μM, depending on the inhibitor strength). Tranylcypromine (Biomol International) was used as a control for inhibition.
# (§4) After leaving the enzyme(s) interacting with the inhibitor, 60 to 90 μM of kynuramine was added to each reaction for MAO-B and MAO-A assay respectively, and the reaction was left for 1 hour at 37° C. in the dark. The oxidative deamination of the substrate was stopped by adding 50 μL (v/v) of NaOH 2N. The conversion of kynuramine to 4-hydroxyquinoline, was monitored by fluorescence (excitation at 320 nm, emission at 360 nm) using a microplate reader (Infinite 200, Tecan). Arbitrary units were used to measure levels of fluorescence produced in the absence and/or in the presence of inhibitor.
# (§5) The maximum of oxidative deamination activity was obtained by measuring the amount of 4-hydroxyquinoline formed from kynuramine deamination in the absence of inhibitor and corrected for background fluorescence in the absence of MAO enzymes. The Ki (IC50) of each inhibitor was determined at Vmax/2.
# [3] = biological target: T3, Human recombinant monoamine oxidase MAO-A (Homo sapiens, UniProt P21397); assay: Monoamine oxidase assay, kynuramine fluorescence, MAO-A; details: Ki (IC50) determined at Vmax/2; range class
# T3 construct: purchased Sigma Aldrich
# T3 sequence (P21397 1-527): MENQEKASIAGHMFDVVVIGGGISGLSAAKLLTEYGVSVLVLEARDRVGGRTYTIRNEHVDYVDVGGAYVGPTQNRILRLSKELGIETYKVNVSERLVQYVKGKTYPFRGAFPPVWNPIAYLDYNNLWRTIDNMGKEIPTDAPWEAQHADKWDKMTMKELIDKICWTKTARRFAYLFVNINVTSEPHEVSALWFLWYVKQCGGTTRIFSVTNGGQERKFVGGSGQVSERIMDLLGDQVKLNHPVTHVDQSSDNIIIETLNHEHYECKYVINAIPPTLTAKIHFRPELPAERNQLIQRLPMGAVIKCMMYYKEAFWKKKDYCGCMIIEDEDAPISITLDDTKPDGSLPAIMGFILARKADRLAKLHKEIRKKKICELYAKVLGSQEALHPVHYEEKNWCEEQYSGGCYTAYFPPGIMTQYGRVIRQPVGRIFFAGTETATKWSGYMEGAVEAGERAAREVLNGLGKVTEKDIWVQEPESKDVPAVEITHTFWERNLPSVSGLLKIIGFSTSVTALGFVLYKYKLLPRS
# Text: as §1, §2, §3, §4, §5
SMILES,Ki [1] [µM],Ki [2] [µM],Ki [3] [µM]
"COc1cccc(Nc2ccc([C@H]3C[C@@H]3N)cn2)c1 (racemic) [Example 4, 5-((trans)-2-aminocyclopropyl)-N-(3-methoxyphenyl)pyridin-2-amine hydrochloride]",0.1 to 1,1 to 40,1 to 40
"Cc1cccc(Nc2ccc([C@H]3C[C@@H]3N)cn2)c1 (racemic) [Example 7, 5-((trans)-2-aminocyclopropyl)-N-m-tolylpyridin-2-amine hydrochloride]",0.1 to 1,0.1 to 1,1 to 40
"N[C@H]1C[C@@H]1c1ccc(Nc2cccc(Cl)c2)nc1 (racemic) [Example 1, 5-((trans)-2-aminocyclopropyl)-N-(3-chlorophenyl)pyridin-2-amine hydrochloride]",0.1 to 1,0.001 to 0.1,1 to 40
"N#Cc1cccc(CNc2ccc([C@H]3C[C@@H]3N)cn2)c1 (racemic) [Example 18, 3-((5-((trans)-2-aminocyclopropyl)pyridin-2-ylamino)methyl)benzonitrile hydrochloride]",0.1 to 1,1 to 40,1 to 40
"N[C@H]1C[C@@H]1c1ccc(NCc2ccc(C(F)(F)F)cc2)nc1 (racemic) [Example 15, 5-((trans)-2-aminocyclopropyl)-N-(4-(trifluoromethyl)benzyl)pyridin-2-amine hydrochloride]",0.1 to 1,1 to 40,1 to 40
"N[C@H]1C[C@@H]1c1ccc(Nc2ccc(Cl)cc2)nc1 (racemic) [Example 2, 5-((trans)-2-aminocyclopropyl)-N-(4-chlorophenyl)pyridin-2-amine hydrochloride]",0.1 to 1,0.001 to 0.1,1 to 40
"Cc1ccc(Nc2ccc([C@H]3C[C@@H]3N)cn2)cc1 (racemic) [Example 6, 5-((trans)-2-aminocyclopropyl)-N-p-tolylpyridin-2-amine hydrochloride]",0.1 to 1,1 to 40,1 to 40
"Cc1cccc(CNc2ccc([C@H]3C[C@@H]3N)cn2)c1 (racemic) [Example 16, 5-((trans)-2-aminocyclopropyl)-N-(3-methylbenzyl)pyridin-2-amine hydrochloride]",0.1 to 1,1 to 40,1 to 40
"N#Cc1cccc(Nc2ccc([C@H]3C[C@@H]3N)cn2)c1 (racemic) [Example 9, 3-(5-((trans)-2-aminocyclopropyl)pyridin-2-ylamino)benzonitrile hydrochloride]",0.1 to 1,0.1 to 1,1 to 40

# Other lines, results leading:
Ki [1] [µM],Ki [2] [µM],Ki [3] [µM],SMILES
0.1 to 1,0.1 to 1,1 to 40,"COc1ccc(Nc2ccc([C@H]3C[C@@H]3N)cn2)cc1 (racemic) [Example 5, 5-((trans)-2-aminocyclopropyl)-N-(4-methoxyphenyl)pyridin-2-amine hydrochloride]"
0.1 to 1,1 to 40,1 to 40,"NC(=O)c1cccc(Nc2ccc([C@H]3C[C@@H]3N)cn2)c1 (racemic) [Example 10, 3-(5-((trans)-2-aminocyclopropyl)pyridin-2-ylamino)benzamide hydrochloride]"
0.1 to 1,1 to 40,1 to 40,"Cc1ccc(CNc2ccc([C@H]3C[C@@H]3N)cn2)cc1 (racemic) [Example 17, 5-((trans)-2-aminocyclopropyl)-N-(4-methylbenzyl)pyridin-2-amine hydrochloride]"
0.1 to 1,1 to 40,1 to 40,"N[C@H]1C[C@@H]1c1ccc(NCc2cccc(Cl)c2)nc1 (racemic) [Example 12, 5-((trans)-2-aminocyclopropyl)-N-(3-chlorobenzyl)pyridin-2-amine hydrochloride]"
0.1 to 1,0.1 to 1,1 to 40,"N[C@H]1C[C@@H]1c1ccc(Nc2ccc(C(F)(F)F)cc2)nc1 (racemic) [Example 3, 5-((trans)-2-aminocyclopropyl)-N-(4-(trifluoromethyl)phenyl)pyridin-2-amine hydrochloride]"
